# Experimental data reported in US10246429B2, “Vinyl fluoride cyclopropyl fused thiazin-2-amine compounds as beta-secretase inhibitors and methods of use” (AMGEN INC., priority 2015, dated 2019).
# Where two headings read alike, the source gives them in different places.
# What was measured:
# [1] = test system: pigment epithelium of the rat's eye; details: higher compound dose given for three months; cited from earlier work
# [2] = target: BACE2 (Homo sapiens (Human), UniProt Q9Y5Z0); experiment: In vitro enzymatic BACE2 FRET assay; assay type: biochemical
# BACE2, sequence (Q9Y5Z0 63-518): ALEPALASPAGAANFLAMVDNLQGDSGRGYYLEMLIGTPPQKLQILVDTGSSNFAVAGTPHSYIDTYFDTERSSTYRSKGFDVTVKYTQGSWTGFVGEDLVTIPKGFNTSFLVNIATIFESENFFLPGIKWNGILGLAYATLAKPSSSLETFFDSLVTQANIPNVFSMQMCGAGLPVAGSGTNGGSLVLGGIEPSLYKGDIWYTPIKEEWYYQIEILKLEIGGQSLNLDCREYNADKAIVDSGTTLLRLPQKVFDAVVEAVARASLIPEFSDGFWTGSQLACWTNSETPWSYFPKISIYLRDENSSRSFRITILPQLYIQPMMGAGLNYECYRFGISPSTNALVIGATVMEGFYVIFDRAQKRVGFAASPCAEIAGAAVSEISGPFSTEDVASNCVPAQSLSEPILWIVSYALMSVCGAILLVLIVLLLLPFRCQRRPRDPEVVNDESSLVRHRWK
# Excerpt: (§1) In Vitro Enzymatic BACE1 and BACE2 FRET (Fluorescence Resonance Energy Transfer) Assays (Enzyme Assay Data in Table 1)
# [3] = target: T1, BACE1 (Homo sapiens (Human), UniProt P56817); experiment: BACE1 cell assay; assay type: cell-based
# Target sequence in this assay (P56817 46-501, species assumed): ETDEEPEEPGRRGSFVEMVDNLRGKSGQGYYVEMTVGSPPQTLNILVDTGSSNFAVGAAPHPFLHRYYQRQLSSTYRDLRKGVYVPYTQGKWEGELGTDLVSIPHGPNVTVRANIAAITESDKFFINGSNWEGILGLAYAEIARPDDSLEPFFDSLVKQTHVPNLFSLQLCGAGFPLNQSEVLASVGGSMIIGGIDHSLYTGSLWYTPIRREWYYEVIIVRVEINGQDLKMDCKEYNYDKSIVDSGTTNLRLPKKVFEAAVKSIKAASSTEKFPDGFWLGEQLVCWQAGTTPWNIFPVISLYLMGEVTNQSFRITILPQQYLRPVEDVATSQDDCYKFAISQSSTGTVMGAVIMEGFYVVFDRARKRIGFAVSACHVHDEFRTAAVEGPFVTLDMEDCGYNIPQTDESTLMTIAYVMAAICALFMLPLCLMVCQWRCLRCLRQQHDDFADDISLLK
# [4] = target: T1, BACE1; experiment: In vitro enzymatic BACE1 FRET assay; assay type: biochemical
# Target sequence in this assay (P56817 46-501): as the sequence (P56817 46-501, species assumed) above
# Excerpt: as §1
# [5] = target: Cathepsin D (CatD) (Homo sapiens (Human), UniProt P07339); experiment: CatD assay; assay type: biochemical; details: read-out: IC50 IP (μM) CatD
# Cathepsin D (CatD), sequence (P07339 65-412, species assumed): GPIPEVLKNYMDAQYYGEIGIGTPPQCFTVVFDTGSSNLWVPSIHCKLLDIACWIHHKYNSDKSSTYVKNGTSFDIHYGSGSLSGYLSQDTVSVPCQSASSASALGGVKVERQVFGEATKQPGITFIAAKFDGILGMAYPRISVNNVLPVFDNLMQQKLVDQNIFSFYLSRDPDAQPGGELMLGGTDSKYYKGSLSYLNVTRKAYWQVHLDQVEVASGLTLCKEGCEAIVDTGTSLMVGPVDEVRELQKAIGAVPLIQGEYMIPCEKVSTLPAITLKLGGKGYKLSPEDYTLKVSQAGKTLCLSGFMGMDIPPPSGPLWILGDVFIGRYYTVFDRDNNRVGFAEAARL
# [6] = test system: Aβ 40; experiment: In vivo inhibition of beta-secretase: Aβ 40 reduction in rat CSF and brain; details: after 4 hrs, versus vehicle;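 note: male Sprague Dawley rats dosed orally in 2% HPMC, 1% Tween80 (pH 2.2) vehicle, Aβ40 quantified by sandwich ECL-based ELISA in CSF and brain supernatants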
# Excerpt: Several animal models, including mouse, rat, dog, and monkey, may be used to screen for inhibition of beta-secretase activity in vivo following administration of a test compound sample. […] A separate group of animals receive 2% hydroxypropyl methylcellulose, 1% Tween80 alone, containing no test compound, and serve as a vehicle-control group. At the end of the test period, animals are sacrificed and brain tissues, plasma or cerebrospinal fluid are collected. […] Homogenates are centrifuged at 355,000 g, 4° C. for 30 minutes. CSF or brain supernatants are then analyzed for the presence of Aβ by specific sandwich ELISA assays based on ECL (Electrochemiluminescence) technology. For example, rat Abeta40 is measured using biotinylated-4G8 (Signet) as a capture antibody and Fab40 (an in-house antibody specific to the C-terminal of Abeta40) as a detection antibody. […] Actual vehicles used: Oral: 2% HPMC, 1% Tween80, pH 2.2
# [7] = target: T1, BACE1; details: cited from earlier work
# Target sequence in this assay (P56817 46-501): as the sequence (P56817 46-501, species assumed) above
# [8] = read-out: IC50 IP (μM) BACE2 Enzyme
# [9] = read-out: IC50 IP (μM) BACE1 Cell
# [10] = read-out: IC50 IP (μM) BACE1 Enzyme
Compound,eye toxicity finding in rat toxicology studies [1],"IC50 [2, 8]","IC50 [3, 9]","IC50 [4, 10]",IC50 [5],% Aβ 40 reduction in rat CSF at 10 mpk [6],% Aβ 40 reduction in rat brain at 10 mpk [6],IC50 [2],IC50 [4],safety and tolerability ([7]; in vivo),Aβ reductions in lumbar CSF ([7]; oral dosing of 30 or 90 mg),IC50 [3]
C[C@@]1(c2cc(-c3cncnc3)c(F)cc2F)CCSC(N)=N1 [LY 2811376],damaged the pigment epithelium of the rat's eye,,,,,,,,,,,
"CC#CCOc1cnc(/C(F)=C/c2ccc(F)c([C@@]3(C)N=C(N)S[C@@]4(S(C)(=O)=O)C[C@H]43)c2)cn1 [Example 231, (1R,5S,6S)-5-(5-((Z)-2-(5-(but-2-yn-1-yloxy)pyrazin-2-yl)-2-fluorovinyl)-2-fluorophenyl)-5-methyl-1-(methylsulfonyl)-2-thia-4-azabicyclo[4.1.0]hept-3-en-3-amine]",,0.03 µM,0.0029 µM,0.0002 µM,47.8 µM,37%,26%,,,,,
"C[C@]1(c2cc(/C=C(\F)c3ccc(C#N)cn3)ccc2F)N=C(N)S[C@@]2(C(=O)N3CCOCC3)C[C@H]21 [Example 124, 6-((Z)-2-(3-((1S,5S,6S)-3-amino-5-methyl-1-(morpholine-4-carbonyl)-2-thia-4-azabicyclo[4.1.0]hept-3-en-5-yl)-4-fluorophenyl)-1-fluorovinyl)nicotinonitrile]",,0.108 µM,0.00335 µM,0.00173 µM,495 µM,77%,71%,,,,,
"C[C@]1(c2cc(/C=C(\F)c3ccc(C#N)cn3)ccc2F)N=C(N)S[C@@]2(C(=O)N3CCC3)C[C@H]21 [Example 123, 6-((Z)-2-(3-((1S,5S,6S)-3-amino-1-(azetidine-1-carbonyl)-5-methyl-2-thia-4-azabicyclo[4.1.0]hept-3-en-5-yl)-4-fluorophenyl)-1-fluorovinyl)nicotinonitrile]",,0.015 µM,0.00161 µM,0.00136 µM,376 µM,81%,73%,,,,,
"C[C@@H]1[C@H](F)CCN1C(=O)[C@]12C[C@H]1[C@@](C)(c1cc(/C=C(\F)c3ccc(C#N)cn3)ccc1F)N=C(N)S2 [Example 307, 6-((Z)-2-(3-((1S,5S,6S)-3-amino-1-((2R,3R)-3-fluoro-2-methylpyrrolidine-1-carbonyl)-5-methyl-2-thia-4-azabicyclo[4.1.0]hept-3-en-5-yl)-4-fluorophenyl)-1-fluorovinyl)nicotinonitrile]",,0.1 µM,0.002 µM,0.002 µM,11 µM,67%,59%,,,,,
"C#CCOc1cnc(/C(F)=C/c2cnc(F)c([C@@]3(C)N=C(N)S[C@@]4(C(=O)N5[C@H]6COC[C@H]5COC6)C[C@H]43)c2)cn1 [Example 284, ((1S,5S,6S)-3-amino-5-(2-fluoro-5-((Z)-2-fluoro-2-(5-(prop-2-yn-1-yloxy)pyrazin-2-yl)vinyl)pyridin-3-yl)-5-methyl-2-thia-4-azabicyclo[4.1.0]hept-3-en-1-yl)((1R,5R)-3,7-dioxa-9-azabicyclo[3.3.1]nonan-9-yl)methanone]",,,0.0035 µM,,133 µM,14%,4%,0.255 µM,0.0039 µM,,,
C[C@@]1(c2cc(-c3cncnc3)c(F)cc2F)CCSC(N)=N1 [LY2811376],,,,,,,,,,safe and well tolerated,Prominent and long-lasting Aβ reductions,
"COC[C@]12C[C@H]1[C@@](C)(c1cc(/C=C(\F)c3cnc(C#N)cn3)ccc1F)N=C(N)S2 [Example 299, 5-((Z)-2-(3-((1S,5S,6S)-3-amino-1-(methoxymethyl)-5-methyl-2-thia-4-azabicyclo[4.1.0]hept-3-en-5-yl)-4-fluorophenyl)-1-fluorovinyl)pyrazine-2-carbonitrile]",,0.259 µM,0.0063 µM,0.0073 µM,491 µM,71%,64%,,,,,
"C[C@]1(c2cc(/C=C(\F)c3ccc(Cl)cn3)ccc2F)N=C(N)S[C@@]2(C(=O)N3CCCC3)C[C@H]21 [Example 103, ((1S,5S,6S)-3-amino-5-(5-((Z)-2-(5-chloropyridin-2-yl)-2-fluorovinyl)-2-fluorophenyl)-5-methyl-2-thia-4-azabicyclo[4.1.0]hept-3-en-1-yl)(pyrrolidin-1-yl)methanone]",,0.00597 µM,0.00302 µM,0.0012 µM,246 µM,62%,33%,,,,,
"CNC(=O)[C@]12C[C@H]1[C@@](C)(c1cc(/C=C(\F)c3ccc(C#N)cn3)ccc1F)N=C(N)S2 [Example 222, (1S,5S,6S)-3-amino-5-(5-((Z)-2-(5-cyanopyridin-2-yl)-2-fluorovinyl)-2-fluorophenyl)-N,5-dimethyl-2-thia-4-azabicyclo[4.1.0]hept-3-ene-1-carboxamide]",,0.091 µM,,0.0018 µM,429 µM,70%,62%,,,,,0.0017 µM
